Measured values: patent USRE47428E1, “Modulators of methyl modifying enzymes, compositions and uses thereof” (Constellation Pharmaceuticals, Inc., priority 2013, dated 2019)
pIC50: −log10 of the molar value. Read-outs that look alike come from different tables or passages of the source.

Key:
Y641N EZH2 = Y641N EZH2 (Homo sapiens, UniProt Q15910, Y641N); assay: Y641N EZH2 assay, H3K27Me2 oligonucleosomes as substrate; assay type: biochemical
Experimental: (§1) Assays were carried out by mixing rPRC2 together with biotinylated oligonucleosome substrates in the presence of the radio-labeled enzyme co-factor, S-adenosyl-L-methionine (^3H SAM) (Perkin Elmer) and monitoring the enzymatically mediated transfer of tritiated methyl groups from ^3H SAM to histone lysine residues. The amount of resulting tritiated methyl histone product was measured by first capturing the biotinylated oligonucleosomes in streptavidin (SAV) coated FlashPlates (Perkin Elmer), followed by a wash step to remove un-reacted ^3H SAM, and then counting on a TopCount NXT 384 well plate scintillation counter (Perkin Elmer). The final assay conditions for EZH2 were as follows: 50 mM Tris Buffer pH 8.5, 1 mM DTT, 69 μM Brij-35 detergent, 5.0 mM MgCl2, 0.1 mg/mL BSA, 0.2 μM ^3H SAM, 0.2 μM biotinylated oligonucleosomes, 3.6 μM H3K27me3 peptide and 2 nM EZH2.
(§2) A 12.5 μL volume of the HMT enzyme, H3K27me3 peptide and oligonucleosome substrate in assay buffer was added to each well of the assay plate using a Multidrop Combi (Thermo-Fisher). Compounds were pre-incubated with the enzyme for 20 min, followed by initiation of the methyltransferase reaction by addition of 12.5 μL of ^3H SAM in assay buffer (final volume=25 μL). The final concentrations of compounds ranged from a top default concentration of 80 μM down to 0.16 μM in ten 2-fold dilution steps. Reactions were carried out for 60 minutes and quenched with 20 μL per well of 1.96 mM SAH, 50 mM Tris pH 8.5, 200 mM EDTA. Stopped reactions were transferred to SAV coated Flash-plates (Perkin Elmer), incubated for 120 min, washed with a plate washer, and then read on the TopCount NXT (1.0 min/well) to measure the amount of methyl histone product formed during the reaction.

EZH2 = EZH2 (Homo sapiens, UniProt Q15910); assay: EZH2 assay: rPRC2 methyltransferase, 3H SAM FlashPlate; assay type: biochemical; settings: 0.2 μM 3H SAM, 2 nM EZH2
Chain of EZH2 (Q15910 whole entry): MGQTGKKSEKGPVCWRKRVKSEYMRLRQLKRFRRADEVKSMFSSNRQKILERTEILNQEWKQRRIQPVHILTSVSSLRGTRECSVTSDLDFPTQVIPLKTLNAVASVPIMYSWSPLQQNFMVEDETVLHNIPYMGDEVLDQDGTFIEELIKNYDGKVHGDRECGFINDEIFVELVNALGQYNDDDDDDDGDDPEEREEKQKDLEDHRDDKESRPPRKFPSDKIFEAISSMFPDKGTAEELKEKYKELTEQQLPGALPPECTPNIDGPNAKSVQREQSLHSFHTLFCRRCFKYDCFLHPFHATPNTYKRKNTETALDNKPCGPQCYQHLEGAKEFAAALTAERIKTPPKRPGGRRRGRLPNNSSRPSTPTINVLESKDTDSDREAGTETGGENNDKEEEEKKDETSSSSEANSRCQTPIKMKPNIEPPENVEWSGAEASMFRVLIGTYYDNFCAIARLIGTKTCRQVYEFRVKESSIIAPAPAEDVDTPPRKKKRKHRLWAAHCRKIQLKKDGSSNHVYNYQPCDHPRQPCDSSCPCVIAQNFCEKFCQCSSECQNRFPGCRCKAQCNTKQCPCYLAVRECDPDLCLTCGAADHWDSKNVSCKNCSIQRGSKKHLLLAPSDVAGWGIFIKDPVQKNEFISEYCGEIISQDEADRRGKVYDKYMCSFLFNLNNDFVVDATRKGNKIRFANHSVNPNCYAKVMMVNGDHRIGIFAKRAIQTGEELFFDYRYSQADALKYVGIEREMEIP
Chain of EZH2 (O75530 whole entry partner): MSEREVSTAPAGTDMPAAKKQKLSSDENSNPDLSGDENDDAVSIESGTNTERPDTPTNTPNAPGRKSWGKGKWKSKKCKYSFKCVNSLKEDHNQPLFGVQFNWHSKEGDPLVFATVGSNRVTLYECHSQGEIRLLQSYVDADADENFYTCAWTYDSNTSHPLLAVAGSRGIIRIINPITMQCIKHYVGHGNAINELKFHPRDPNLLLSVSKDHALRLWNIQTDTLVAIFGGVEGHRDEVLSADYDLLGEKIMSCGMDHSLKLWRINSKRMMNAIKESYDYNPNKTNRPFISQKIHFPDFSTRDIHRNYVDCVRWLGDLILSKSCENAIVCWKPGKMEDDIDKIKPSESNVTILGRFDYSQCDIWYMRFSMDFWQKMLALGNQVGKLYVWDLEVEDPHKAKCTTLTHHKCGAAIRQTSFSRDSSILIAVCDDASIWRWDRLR
Chain of EZH2 (Q15022 whole entry partner): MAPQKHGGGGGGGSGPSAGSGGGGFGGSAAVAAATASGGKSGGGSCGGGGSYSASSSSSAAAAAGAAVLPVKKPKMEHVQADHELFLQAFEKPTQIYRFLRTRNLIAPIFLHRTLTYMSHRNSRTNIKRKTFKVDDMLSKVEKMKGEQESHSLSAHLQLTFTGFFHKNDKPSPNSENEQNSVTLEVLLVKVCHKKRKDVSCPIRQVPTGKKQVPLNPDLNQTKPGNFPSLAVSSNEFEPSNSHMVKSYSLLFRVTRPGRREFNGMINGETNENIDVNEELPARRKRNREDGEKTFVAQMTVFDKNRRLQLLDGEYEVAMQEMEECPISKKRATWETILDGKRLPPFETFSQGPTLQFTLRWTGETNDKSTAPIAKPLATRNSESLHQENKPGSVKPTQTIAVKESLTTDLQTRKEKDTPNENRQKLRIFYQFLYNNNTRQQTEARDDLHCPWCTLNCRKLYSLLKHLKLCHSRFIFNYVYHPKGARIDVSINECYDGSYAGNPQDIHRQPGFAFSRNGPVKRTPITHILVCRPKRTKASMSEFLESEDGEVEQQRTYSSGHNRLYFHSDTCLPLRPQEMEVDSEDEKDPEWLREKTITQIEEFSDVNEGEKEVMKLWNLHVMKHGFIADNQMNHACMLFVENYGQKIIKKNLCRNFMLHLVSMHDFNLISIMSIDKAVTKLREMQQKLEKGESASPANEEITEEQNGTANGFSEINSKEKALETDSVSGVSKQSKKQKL
Experimental: as §1, §2

[1] = system: Karpas422 human lymphoma xenograft; assay: Tumor growth inhibition, subcutaneous Karpas422 human lymphoma xenograft model; assay type: in vivo, Mus Musculus; settings: 160 mg/kg; for TGI (%) / T/C (%) / Tumor Size (mm3) on day 25: Karpas422 xenograft; for TGI (%) / T/C (%): CB-17 SCID mice; for TGI (%) / T/C (%) / Significance: day 25; for T/C (%): treated/control mean tumor volume; for Tumor Size (mm3) on day 25: female CB-17 SCID mice, day 25 after start of treatment, Mean ± SEM; for Significance: one-way ANOVA vs vehicle, tumor volume
Experimental: Number of animals: 50 mice plus spare
Animal supplier: Shanghai SLAC Laboratory Animal Co., LTD.
The Karpas422 tumor cells were maintained in vitro as suspension culture in RPMI1640 medium supplemented with 10% heat inactivated fetal calf serum at 37° C. in an atmosphere of 5% CO2 in air. The tumor cells were routinely subcultured twice weekly. The cells growing in an exponential growth phase were harvested and counted for tumor inoculation.
Each mouse was inoculated subcutaneously at the right flank with the Karpas422 tumor cells (5×10^6) in 0.2 ml of PBS with Matrigel (1:1) for tumor development. Day 23 after tumor inoculation was as day 0 after the start of treatment when the average tumor size reached approximately 300 mm^3. Each group consisted of 10 tumor-bearing mice.
Tumor size was measured three times weekly in two dimensions using a caliper, and the volume was expressed in mm^3 using the formula: V=0.536a×b^2 where a and b are the long and short diameters of the tumor, respectively. The tumor size was then used for calculations of T/C values. The T/C value (in percent) is an indication of antitumor effectiveness; T and C are the mean volumes of the treated and control groups, respectively, on a given day. TGI was calculated for each group using the formula: TGI (%)[1−(Ti−T0)/(Vi−V0)]×100; Ti is the average tumor volume of a treatment group on a given day, T0 is the average tumor volume of the treatment group on the day of treatment start, Vi is the average tumor volume of the vehicle control group on the same day with Ti, and V0 is the average tumor volume of the vehicle group on the day of treatment start.
Experimental Endpoint and Sample Collection
1). Plasma, tumor and muscle in EPZ-6438 group were collected on day 16 after the start of treatment at 6 h after dosing. Plasma, tumor and muscle in vehicle, CPI-524369, CPI-524416 and CPI-591780 groups were collected on day 25 after the start of treatment at 1 h after dosing. 2). All the blood was taken from each animal with EDTA-K2 as anticoagulant. Plasma was divided into two parts. The first part was for PK analysis; the second part was frozen for backup. 3). Tumor was divided into three parts. The first part was snap-frozen for PK; the second part was snap-frozen for PD analysis; the third part was frozen for backup. 4). Muscle was divided into two parts. The first part was snap-frozen for PK; the second part was frozen for backup.
Tumor Growth Inhibition Analysis

[2] = rPRC2, biotinylated oligonucleosomes, read-out: EZH2 IC50
[3] = Y641N EZH2 mutant enzyme, H3K27Me2 oligonucleosomes, read-out: Y641N EZH2 IC50
[4] = EZH2 IC50, rPRC2, biotinylated oligonucleosomes

Chain of Y641N EZH2 (Q15910 whole entry Y641N): as the sequence (Q15910 whole entry) above, with Y641N counted along it
Chain of Y641N EZH2 (O75530 whole entry partner): as the sequence (O75530 whole entry partner) above
Chain of Y641N EZH2 (Q15022 whole entry partner): as the sequence (Q15022 whole entry partner) above

Structure (SMILES) | pIC50 (Y641N EZH2) | pIC50 (EZH2; [2]) | pIC50 (Y641N EZH2; [3]) | pIC50 (EZH2; [4]) | also measured
COc1cc(C)[nH]c(=O)c1CNC(=O)c1c(C)n(C(C)C(C)OC)c2ncccc12 (single isomer, unassigned) [Compound 266, N-((4-methoxy-6-methyl-2-oxo-1,2-dihydropyridin-3-yl)methyl)-1-((2R or 2S, 3R or 3S)-3-methoxybutan-2-yl)-2-methyl-1H-pyrrolo[2,3-b]pyridine-3-carboxamide] | 6.00 to 7.00 |  |  |  | 
COc1cc(C)[nH]c(=O)c1CNC(=O)c1c(C)n(C(C)C2CCN(S(C)(=O)=O)CC2)c2ccccc12 (single isomer, unassigned) [Compound 336, (R or S)-N-((4-methoxy-6-methyl-2-oxo-1,2-dihydropyridin-3-yl)methyl)-2-methyl-1-(1-(1-(methylsulfonyl)piperidin-4-yl)ethyl)-1H-indole-3-carboxamide] |  | > 7.00 | > 7.00 |  | 
COc1cc(C)[nH]c(=O)c1CNC(=O)c1c(C)n(C(C)C2CCN(C(=O)C(C)(C)O)CC2)c2ccccc12 (single isomer, unassigned) [Compound 337, (R or S)-1-(1-(1-(2-hydroxy-2-methylpropanoyl)piperidin-4-yl)ethyl)-N-((4-methoxy-6-methyl-2-oxo-1,2-dihydropyridin-3-yl)methyl)-2-methyl-1H-indole-3-carboxamide] |  | > 7.00 | > 7.00 |  | 
COc1cc(C)[nH]c(=O)c1CNC(=O)c1c(C)n(C(C)C2CCN(C3COC3)CC2)c2ccccc12 (single isomer, unassigned) [Compound 341, (R or S)-N-((4-methoxy-6-methyl-2-oxo-1,2-dihydropyridin-3-yl)methyl)-2-methyl-1-(1-(1-(oxetan-3-yl)piperidin-4-yl)ethyl)-1H-indole-3-carboxamide] | > 7.00 |  |  | > 7.00 | 
COc1cc(C)[nH]c(=O)c1CNC(=O)c1c(C)n(C(C)C2CCN(C(=O)C(C)C)CC2)c2ccccc12 (single isomer, unassigned) [Compound 342, (R or S)-1-(1-(1-isobutyrylpiperidin-4-yl)ethyl)-N-((4-methoxy-6-methyl-2-oxo-1,2-dihydropyridin-3-yl)methyl)-2-methyl-1H-indole-3-carboxamide] |  | > 7.00 | > 7.00 |  | 
Cc1cc(OC(F)F)c(CNC(=O)c2c(C)n(C(C)C3CCN(S(C)(=O)=O)CC3)c3ccccc23)c(=O)[nH]1 (single isomer, unassigned) [Compound 344, (R or S)-N-((4-(difluoromethoxy)-6-methyl-2-oxo-1,2-dihydropyridin-3-yl)methyl)-2-methyl-1-(1-(1-(methylsulfonyl)piperidin-4-yl)ethyl)-1H-indole-3-carboxamide] |  | > 7.00 | > 7.00 |  | 
COCCN1CCC(C(C)n2c(C)c(C(=O)NCc3c(OC)cc(C)[nH]c3=O)c3ccccc32)CC1 (single isomer, unassigned) [Compound 359, (R or S)-N-((4-methoxy-6-methyl-2-oxo-1,2-dihydropyridin-3-yl)methyl)-1-(1-(1-(2-methoxyethyl)piperidin-4-yl)ethyl)-2-methyl-1H-indole-3-carboxamide] | > 7.00 |  |  | > 7.00 | 
COc1cc(C)[nH]c(=O)c1CNC(=O)c1c(C)n(C(C)C2CCN(CC(F)F)CC2)c2ccccc12 (single isomer, unassigned) [Compound 362, (R or S)-1-(1-(1-(2,2-difluoroethyl)piperidin-4-yl)ethyl)-N-((4-methoxy-6-methyl-2-oxo-1,2-dihydropyridin-3-yl)methyl)-2-methyl-1H-indole-3-carboxamide] |  |  |  |  | TGI (%) [1]: 92.75%; T/C (%) [1]: 22.59%; Tumor Size (mm3) on day 25 [1]: 385 ± 66 mm3; Significance [1]: *** (*** p < 0.001)
COc1cc(C)[nH]c(=O)c1CNC(=O)c1c(C)n(C(C)C2CCN(CC(F)(F)F)CC2)c2ccccc12 (single isomer, unassigned) [Compound 365, (R or S)-N-((4-methoxy-6-methyl-2-oxo-1,2-dihydropyridin-3-yl)methyl)-2-methyl-1-(1-(1-(2,2,2-trifluoroethyl)piperidin-4-yl)ethyl)-1H-indole-3-carboxamide] |  |  |  |  | TGI (%) [1]: 97.25%; T/C (%) [1]: 18.72%; Tumor Size (mm3) on day 25 [1]: 319 ± 67 mm3; Significance [1]: *** (*** p < 0.001)
CCc1cc(C)[nH]c(=O)c1CNC(=O)c1c(C)n(C(C)C2CCN(C)CC2)c2ccccc12 (single isomer, unassigned) [Compound 366, (R or S)-N-((4-ethyl-6-methyl-2-oxo-1,2-dihydropyridin-3-yl)methyl)-2-methyl-1-(1-(1-methylpiperidin-4-yl)ethyl)-1H-indole-3-carboxamide] | > 7.00 |  |  | > 7.00 | 
Cc1cc(C)c(CNC(=O)c2c(C)n(C(C)C3CCN(C4COC4)CC3)c3ccccc23)c(=O)[nH]1 (single isomer, unassigned) [Compound 375, (R or S)-N-((4,6-dimethyl-2-oxo-1,2-dihydropyridin-3-yl)methyl)-2-methyl-1-(1-(1-(oxetan-3-yl)piperidin-4-yl)ethyl)-1H-indole-3-carboxamide] | > 7.00 |  |  | > 7.00 | 
